According to paper PMC11941218, “Juglone-Bearing Thiopyrano[2,3-d]thiazoles Induce Apoptosis in Colorectal Adenocarcinoma Cells” (Cells, 2025):

How the values were obtained:
[1] = test system: Balb/c 3T3 (mouse fibroblasts); assay: MTT assay; format: cell-based; conditions: BALB/c3T3, Balb/c 3T3, MTT, 72 h, M ± SD, n = 3
Method: (§1) DLD-1, HaCaT, and Balb/c 3T3 cells were maintained in DMEM, while HT-29 cells were grown in McCoy’s 5A medium with 10% FBS and 1% penicillin/streptomycin. All cell lines were incubated at 37 °C in a humidified atmosphere with 5% CO2. After detaching the cells with trypsin, they were quantified using a Scepter 3.0 automated cell counter (Millipore, Burlington, MA, USA).
(§2) The metabolic activity of cells exposed to the tested derivatives, doxorubicin, and DMSO, was assessed using an MTT assay according to the manufacturer’s protocol (Sigma-Aldrich, St. Louis, MO, USA). Adherent cells were seeded into 96-well plates (5000–10,000 cells in 100 µL of growth medium per well) and allowed to adhere overnight before treatment. For lymphocytes, activation with phytohemagglutinin-L (1 µg/mL) was performed for 24 h, after which they were seeded in 96-well plates at a density of 100,000 cells/well in RPMI-1640 medium supplemented with 20% FBS. The test substances, including Les-6547, Les-6557, and doxorubicin, were added to 100 µL of culture medium to achieve final concentrations of 0 µM, 0.1 µM, 1 µM, 2.5 µM, 10 µM, and 100 µM for all compounds, and the cells were further incubated for 24, 48, or 72 h. DMSO-treated cells served as the control. Then, 20 µL of MTT solution (5 mg/mL) was added and incubated for 2–4 h to allow formazan crystal formation. The formazan crystals were then solubilized by adding DMSO. The absorbance of formazan was measured at 570 nm using a ThermoScientific Evolution 201 UV-VIS spectrophotometer (ThermoFisher Scientific, Waltham, MA, USA). The control condition with 0.5% DMSO was considered 100% viability. The IC50 values for the compounds were determined using GraphPad Prism 8 and 9 software (GraphPad Software, Boston, MA, USA).

[2] = test system: HT-29 colorectal adenocarcinoma cells; assay: MTT assay; format: cell-based; conditions: Homo sapiens
Method: as §1, §2

[3] = test system: HaCaT (human keratinocytes); assay: MTT assay; format: cell-based; conditions: 72 h, M ± SD, n = 3
Method: as §1, §2

[4] = test system: DLD-1 colorectal adenocarcinoma cells; assay: MTT assay; format: cell-based, human; conditions: for IC50: Homo sapiens
Method: as §1, §2

[5] = test system: DLD-1 colorectal adenocarcinoma cells; assay: Colony forming (clonogenic) assay; format: cell-based, human; conditions: for inhibition of colony formation: DLD-1, 2.5 µM; for inhibition at 1 µM / IC50: Homo sapiens; for inhibition at 1 µM: DLD-1, 1 µM, read-out: inhibition of colony formation; for IC50: DLD-1, 72 h treatment, 14 days of incubation, M ± SD, n = 3
Method: (§3) For colony forming assay, HT-29 and DLD-1 cells were seeded in 12-well plates at a density of 500 cells in 2 mL of growth medium per well. After overnight incubation, the cells were exposed to the compounds Les-6547, Les-6557, and doxorubicin at concentrations ranging from 0.1 to 100 µM for 72 h. Following treatment, the medium was replaced with fresh medium without the compounds. After 14 days of culture, cells were rinsed with PBS and fixed with cold methanol for 10 min. Subsequently, the cells were stained with a 0.1% crystal violet solution for 10 min. After washing, the plates were allowed to dry at room temperature. Numbers of colonies were quantified using ImageJ software (version 1.5.4; National Institutes of Health, Bethesda, MD, USA). The effect of the compounds on the colony-forming capacity was calculated as a percentage of colonies relative to the untreated control group.

[6] = test system: HT-29 colorectal adenocarcinoma cells; assay: Colony forming (clonogenic) assay; format: cell-based, human; conditions: for inhibition of colony formation: HT-29, 2.5 µM; for inhibition at 1 µM / IC50: Homo sapiens; for inhibition at 1 µM: HT-29, 1 µM, read-out: inhibition of colony formation; for IC50: HT-29, 72 h treatment, 14 days of incubation, n = 3
Method: as §3

[7] = test system: HT-29 colorectal adenocarcinoma cells; assay: Mitochondrial membrane potential assay (JC-1, flow cytometry); format: cell-based, human; conditions: HT-29, JC-1, 24 h; Les-6547 5 μM, Les-6557 10 μM
Method: The disruption of mitochondrial membrane potential (MMP) was assessed using the JC-1 MitoScreen kit and a BD FACSCanto II flow cytometer, following the instructions provided and previously described protocols.
HT-29 cells were exposed to Les-6547 (5 µM) and Les-6557 (10 µM) for 24 h. After the treatment, the cells were washed and resuspended in 0.5 mL of buffer containing 10 μg/mL JC-1, followed by incubation for 15 min at room temperature, shielded from light.
Then, the cells were washed twice with buffer, resuspended in 300 μL of PBS, and analyzed for mitochondrial membrane potential disruption.

[8] = test system: HT-29 colorectal adenocarcinoma cells; assay: Cell cycle analysis (PI, flow cytometry); format: cell-based, human; conditions: HT-29, 24 h; Les-6547 5 μM, Les-6557 10 μM
Method: Cell cycle analysis of HT-29 cells treated with Les-6547 (5 µM) and Les-6557 (10 µM) for 24 h was conducted utilizing a FACSCanto II flow cytometer. Following the incubation period, the cells were detached using trypsin, collected, and fixed in cold ethanol (70%) before being stored at −20 °C for up to three days. Cells were then processed for flow cytometry analysis as previously described. Fixed cells were washed with cold PBS and centrifuged at 2000 rpm for 10 min, and the supernatant was discarded. The cell pellet was resuspended in PBS with 50 μg/mL DNase-free RNase A Solution and stained with 100 μg/mL PI for 30 min at 37 °C in the dark. After washing, the cells were resuspended in PBS. Cell cycle distribution was analyzed using a BD FACSCanto II flow cytometer (10,000 events) and FACSDiva 6.1.3 software (both BD Biosciences Systems, San Jose, CA, USA), followed by analysis with FCS Express 7 software (De Novo Software, Pasadena, CA, USA). The system was calibrated using a BD Cytometer Setup and Tracking Beads (BD Biosciences, San Diego, CA, USA).

[9] = HT-29, MTT, 24, 48 and 72 h, read-out: IC50 (range over incubation times)
[10] = HT-29, MTT, 24 h, M ± SD, n = 3, read-out: IC50
[11] = HT-29, MTT, 48 h, M ± SD, n = 3, read-out: IC50
[12] = HT-29, MTT, 72 h, M ± SD, n = 3, read-out: IC50
[13] = DLD-1, MTT, 24, 48 and 72 h, read-out: IC50 (range over incubation times)
[14] = DLD-1, MTT, 24 h, M ± SD, n = 3, read-out: IC50
[15] = DLD-1, MTT, 48 h, M ± SD, n = 3, read-out: IC50
[16] = DLD-1, MTT, 72 h, M ± SD, n = 3, read-out: IC50

| IC50 [2, 9] | IC50 [2, 10] | IC50 [2, 11] | IC50 [2, 12] | IC50 [4, 13] | IC50 [4, 14] | IC50 [4, 15] | IC50 [4, 16] | IC50 [5] | IC50 [6] | SMILES | IC50 [1] | IC50 [3] | inhibition of colony formation [5] | inhibition at 1 µM [5] | inhibition of colony formation [6] | inhibition at 1 µM [6] | Cells with decreased ΔΨm [7] | Cells with normal ΔΨm [7] | cells in G1 phase [8] | cells in G2/M phase [8] | also measured |
| --- | --- | --- | --- | --- | --- | --- | --- | --- | --- | --- | --- | --- | --- | --- | --- | --- | --- | --- | --- | --- | --- |
| 4.29 to 5.72 µM | 5.72 ± 0.41 µM | 4.29 ± 0.5 µM | 4.44 ± 0.35 µM | 5.14 to 6.62 µM | 5.14 ± 0.81 µM | 5.17 ± 0.58 µM | 6.62 ± 0.07 µM | 0.4 ± 0.06 µM | ~0.5 µM | O=C1C2=C(C(=O)c3c(O)cccc31)C(c1cc(Cl)ccc1O)c1sc(=O)[nH]c1S2 (stereo not shown) [Les-6547] | 31.7 ± 0.41 µM | 89.64 ± 0.84 µM | completely inhibited colony formation | 99% | completely inhibited colony formation | 100% | 30.8% | 70.4% | 25.4% | 39.9% | cells in S phase [8]: 34.7% |
| 6.54 to 10.4 µM | 10.4 ± 0.23 µM | 6.54 ± 0.07 µM | 9.78 ± 0.03 µM | 1.94 to 16.9 µM | 16.9 ± 3.32 µM | 1.94 ± 0.05 µM | 5.19 ± 1.14 µM | 0.33 ± 0.05 µM | ~0.5 µM | O=C1C2=C(C(=O)c3c(O)cccc31)C(c1ccc(Cl)cc1)c1sc(=O)[nH]c1S2 (stereo not shown) [Les-6557] | 40.26 ± 0.35 µM | 68.37 ± 0.57 µM | completely inhibited colony formation | 99% | completely inhibited colony formation | 100% | 32.9% | 68.5% | 19.2% | 28.8% | inhibition of viability, times more effective than Les-6547 ([4]; DLD-1, MTT, 48 h, versus Les-6547): 2.5 times; cells in S phase [8]: 51.3% |
